Measurements taken from patent publication US5849753A, “Pyridyl imidazole derivatives and processes for the preparation thereof” (Korea Research Institute of Chemical Technology, priority 1994, dated 1998).

Legend:
renal hypertensive rat = test: Blood pressure lowering effect in renal hypertension (renal hypertensive rats, intravenous or oral); format: in vivo, male Sprague-Dawley rats; details: 3 mg, read-out: Maxium Blood Pressure Lowering Effect(%)
Text: To induce renal hypertension, left renal artery of 4 week-old male Sprague-Dawley rats(from The Korea Research Institute of Chemical Technology) was ligated. The rats were anesthetized with ether and the surgical region on the left abdomen of the rat was shaved, disinfected, and then incised about 1 cm vertically. The renal artery near abdominal aorta was isolated carefully from surrounding tissues and veins, and then ligated completely with a suture(4/0 sterile surgical silk). The muscular strata and skin of the surgical area were sutured with a suture(4/0 sterile surgical silk). The surgical region was disinfected to prevent infection and thereafter, 200 to 250 mg/Kg/day of cephazolin sodium was injected intramuscularly for 2 days. 6 to 8 days after the ligation, rats showing systolic pressure of more than 180 mmHg were selected for renal hypertension test. The blood pressure was determined by a tail-cuff method from the tail under unanesthetized condition(Gerold, M. et al., Arzneimittrel-Forsch, 18, 1285(1968)).
Each of the compounds to be tested was administered intravenously or orally into the renal hypertensive rat. The blood pressure of the rats was determined by direct method(Chiu, A. T. et al., J. Pharmacol. Exp. Ther. 250, 867(1989)) using a catheter. The rats were anesthetized with ketamine hydrochloride(125 mg/kg, i.p.) and a catheter was filled with saline and inserted into a carotid artery and carotid vein. The surgical area was sutured with a metal clip. The rats were relaxed at least 3 hours and the catheter in the carotid artery was adapted to an isotec pressure transducer to determine their blood pressure and heart rate with a physiograph(Linearcorder WR3310). After the blood pressure was stabilized, the test compound was administered intravenously or orally. For intravenous administration, the administered volume and washing volume were 1.0 ml/Kg and 0.2 ml, respectively. The blood pressure and heart rate were measured in regular intervals up to 24 hours after the administration of the test compound and compared with those measured after the administration of the control compound Losartan.
The test compound was dissolved in 0.05N KOH for intravenous administration and suspended in Tween 80 for oral administration.

angiotensin II receptor = test: Angiotensin II Receptor Binding Assay ([3H] angiotensin II binding inhibition); details: [3H] angiotensin II ligand; 60 minutes, 25° C.; test concentration not given
Experimental: In accordance with the procedure disclosed in Chiu, A. T. et al., Eur. J. Pharm., 157, 13(1981), a ligand marked with a radioisotope was reacted with an angiotensin II receptor and the reactant was filtered with a glass fiber to remove unreacted ligand. After washing the filter, the amount of the remaining isotope was measured to determine the binding activity of the ligand, as described below in detail.
Sprague-Dawley rats and Wistar rats of 250 to 350 g(from The Korea Research Institute of Chemical Technology) were tested and the test procedures were carried out at 4° C., unless otherwise specified. Adrenal gland was separated from the Sprague-Dawley rats(liver, in the case of Wistar rats) into cortex and medulla. The separated adrenal cortex and medulla were washed with a sucrose buffer solution (0.2M sucrose, 1 mM EDTA, 10 mM Tris, pH 7.2) and homogenized in the same buffer solution by using a Teflon pestle and a Brinkmann homogenizer. The homogenates were centrifuged at 3,000 Xg for 10 minutes to remove precipitates and further centrifuged at 12,000 Xg for 13 minutes. The final supernatants were centrifuged at 102,000 Xg for 1 hour to obtain precipitates, which were washed with a Tris buffer solution(50 mM Tris, 5 mM MgCl2, pH 7.2) and re-centrifuged at 102,000 Xg for 1 hour. The resulting precipitates were immediately processed at the following step or stored at -70° C.
The precipitates were suspended in a Tris buffer solution. The amount of protein was determined by using a Bio-Rad DC protein analyzing kit and the protein concentration was adjusted to the amounts of: 0.2 to 0.3 mg/ml(Sprague-Dawley rat: adrenal cortex), 1.5 to 2.0 mg/ml(Sprague-Dawleyrat: adrenal medulla), and 1.5 to 2.0 mg/ml(Wistar rat: liver). To the suspension, bovine serum albumin(BSA) was added to a concentration of 0.25 wt % and the resultant was immediately processed at the following step or stored at -70° C.
(ii) Measurement of angiotensin II receptor binding capacity 50 μl(based on ligand) of [^3 H] angiotensin II(NEN, NET-446) and 10 μl of each of the test compounds with various concentrations were added to the buffer solution(50 mM Irris(pH 7.2), 5 mM MgCl2, 0.25% BSA) to adjust the final volume to be 0.5 ml. 100 μl of the receptor suspension was added thereto and the resulting solution was reacted for 60 minutes while stirring in a water bath at 25° C. 3 ml of cold buffer solution for analysis was added to cease the reaction. The isotope which was bound to the receptor was isolated from the resultant by using Brandel Cell Harvester System with Whatman glass fiber GF/C. After washing the filter, the radioactivity of the filter was determined by using a liquid scintillation counter. Binding inhibition(%) of the test compound was calculated as follows:
Binding Inhibition(%)=[{(T--B)-(S--B)}/(T--B)]×100
wherein T is cpm of the reaction product untreated with the test compound, S is cpm of the reaction product treated with the test compound, and B is cpm of blank test.

Row | Structure (SMILES) | change in vivo at 3 mg (renal hypertensive rat) | Binding Inhibition(%) (angiotensin II receptor)
1 | CCCCc1nc2cc(-c3ccccc3)c(C(OCC)OCC)nc2n1Cc1ccc(-c2ccccc2-c2nnn[nH]2)cc1 [Example 2, 2-butyl-5-diethoxymethyl-6-phenyl-3-[2'-(1H-tetrazol-5-yl)-biphenyl-4-ylmethyl]-3H-imidazo[4,5-b]pyridine] | -45% | –
2 | CCCCc1nc2cc(-c3ccccc3)c(C3OCCO3)nc2n1Cc1ccc(-c2ccccc2-c2nnn[nH]2)cc1 [Example 3, 2-butyl-5-(1,3-dioxolan-2-yl)-6-phenyl-3-[2'-(1H-tetrazol-5-yl)-biphenyl-4-ylmethyl]-3H-imidazo[4,5-b]pyridine] | -27% | 70.6%
3 | CCCCc1nc2cc(-c3ccccc3)c(C3OCCCO3)nc2n1Cc1ccc(-c2ccccc2-c2nn[nH]n2)cc1 [Example 4, 2-butyl-5-(1,3-dioxan-2-yl)-6-phenyl-3-[2'-(1-tetrazol-5-yl)-biphenyl-4-ylmethyl]-3H-imidazo[4,5-b]pyridine] | -33% | 60.9%
4 | CCCCc1nc2cc(-c3ccccc3)c(C3SCCS3)nc2n1Cc1ccc(-c2ccccc2-c2nnn[nH]2)cc1 [Example 5, 2-butyl-5-(1,3-dithiolan-2-yl)-6-phenyl-3-[2'-(1H-tetrazol-5-yl)-biphenyl-4-ylmethyl]-3H-imidazo[4,5-b]pyridine] | – | 54.1%
5 | CCCCc1nc2cc(-c3ccc(OC)cc3)c(C(OC)OC)nc2n1Cc1ccc(-c2ccccc2-c2nn[nH]n2)cc1 [Example 6, 2-butyl-5-dimethoxymethyl-6-(4-methoxyphenyl-1-yl)-3-[2'-(1H-tetrazol-5-yl)-biphenyl-4-ylmethyl]-3H-imidazo[4,5-b]pyridine] | -25% | 49.0%
6 | CCCCc1nc2cc(Br)c(C(OC)OC)nc2n1Cc1ccc(-c2ccccc2-c2nnn[nH]2)cc1 [Example 7, 2-butyl-5-dimethoxymethyl-6-bromo-3-[2'-(1H-tetrazol-5-yl)-biphenyl-4-ylmethyl]-3H-imidazo[4,5-b]pyridine] | – | 78.1%
7 | CCCCc1nc2cc(-c3ccc(F)cc3)c(C(OC)OC)nc2n1Cc1ccc(-c2ccccc2-c2nn[nH]n2)cc1 [Example 9, 2-butyl-5-dimethoxymethyl-6-(4-fluorophenyl-1-yl)-3-[2'-(1H-tetrazol-5-yl)-biphenyl-4-ylmethyl]-3H-imidazo[4,5-b]pyridine] | – | 45.2%
8 | CCCCc1nc2ccc(C(OC)OC)nc2n1Cc1ccc(-c2ccccc2-c2nnn[nH]2)cc1 [Example 10, 2-butyl-5-dimethoxymethyl-3-[2'-(1H-tetrazol-5-yl)-biphenyl-4-ylmethyl]-3H-imidazo[4,5-b]pyridine] | – | 83.6%
9 | CCCCc1nc2c(C)cc(C(OC)OC)nc2n1Cc1ccc(-c2ccccc2-c2nnn[nH]2)cc1 [Example 11, 2-butyl-5-dimethoxymethyl-7-methyl-3-[2'-(1H-tetrazol-5-yl)-biphenyl-4-ylmethyl]-3H-imidazo[4,5-b]pyridine] | – | 52.5%
10 | CCc1nc2c(C)cc(C(OC)OC)nc2n1Cc1ccc(-c2ccccc2-c2nnn[nH]2)cc1 [Example 12, 2-ethyl-5-dimethoxymethyl-7-methyl-3-[2'-(1H-tetrazol-5-yl)-biphenyl-4-ylmethyl]-3H-imidazo[4,5-b]pyridine] | – | 44.5%
11 | CCCCc1nc2cc(CCC(=O)OCC)c(C(OC)OC)nc2n1Cc1ccc(-c2ccccc2-c2nn[nH]n2)cc1 [Example 13, 2-butyl-5-dimethoxymethyl-6-[2-(ethoxycarbonyl)-ethyl-1-yl]-3-[2'-(1H-tetrazol-5-yl)-biphenyl-4-ylmethyl]-3H-imidazo[4,5-b]pyridine] | -32% | 95.0%
12 | CCCCc1nc2cc(-c3cccs3)c(C(OC)OC)nc2n1Cc1ccc(-c2ccccc2-c2nnn[nH]2)cc1 [Example 14, 2-butyl-5-dimethoxymethyl-6-(thiophen-2-yl)-3-[2'-(1H-tetrazol-5-yl)-biphenyl-4-ylmethyl]-3H-imidazo[4,5-b]pyridine] | – | 72.0%
13 | CCCCc1nc2cc(CCc3ccccc3)c(C(OC)OC)nc2n1Cc1ccc(-c2ccccc2-c2nn[nH]n2)cc1 [Example 15, 2-butyl-5-dimethoxymethyl-6-(2-phenylethyl-1-yl)-3-[2'-(1H-tetrazol-5-yl)-biphenyl-4-ylmethyl]-3H-imidazo[4,5-b]pyridine] | -36% | 82.0%
14 | CCCCc1nc2cc(-c3ccc(C)cc3)c(C(OC)OC)nc2n1Cc1ccc(-c2ccccc2-c2nn[nH]n2)cc1 [Example 16, 2-butyl-5-dimethoxymethyl-6-(4-methylphenyl-1-yl)-3-[2'-(1H-tetrazol-5-yl)-biphenyl-4-ylmethyl]-3H-imidazo[4,5-b]pyridine] | – | 68.5%
15 | CCCCc1nc2cc(-c3ccc(COCc4ccccc4)cc3)c(C(OC)OC)nc2n1Cc1ccc(-c2ccccc2-c2nn[nH]n2)cc1 [Example 17, 2-butyl-5-dimethoxymethyl-6-[4-(benzyloxymethyl)-phenyl-1-yl]-3-[2'-(1H-tetrazol-5-yl)-biphenyl-4-ylmethyl]-3H-imidazo[4,5-b]pyridine] | – | 82.0%
16 | CCCCc1nc2cc(-c3ccc(CO)cc3)c(C(OC)OC)nc2n1Cc1ccc(-c2ccccc2-c2nn[nH]n2)cc1 [Example 18, 2-butyl-5-dimethoxymethyl-6-(4-hydroxymethylphenyl-1-yl)-3-[2'-(1H-tetrazol-5-yl)-biphenyl-4-ylmethyl]-3H-imidazo[4,5-b]pyridine] | -33% | 89.4%
17 | CCCCc1nc2cc(-c3ccccc3[N+](=O)[O-])c(C(OC)OC)nc2n1Cc1ccc(-c2ccccc2-c2nn[nH]n2)cc1 [Example 19, 2-butyl-5-dimethoxymethyl-6-(2-nitrophenyl-1-yl)-3-[2'-(1H-tetrazol-5-yl)-biphenyl-4-ylmethyl]-3H-imidazo[4,5-b]pyridine] | -29% | 70.9%
18 | CCCCc1nc2cc(-c3ccccc3N)c(C(OC)OC)nc2n1Cc1ccc(-c2ccccc2-c2nn[nH]n2)cc1 [Example 26, 2-butyl-5-dimethoxymethyl-6-(2-aminophenyl-1-yl)-3-[2'-(1H-tetrazol-5-yl)-biphenyl-4-ylmethyl]-3H-imidazo[4,5-b]pyridine] | – | 89.2%
19 | CCCCc1nc2cc(Cc3ccccc3)c(C(OC)OC)nc2n1Cc1ccc(-c2ccccc2-c2nnn[nH]2)cc1 [Example 27, 2-butyl-5-dimethoxymethyl-6-benzyl-3-[2'-(1H-tetrazol-5-yl)-biphenyl-4-ylmethyl]-3H-imidazo[4,5-b]pyridine] | – | 87.8%
